Data as given in patent publication US11110070B2 (priority 2015, dated 2021).
“Also recorded” adds a separate entry of the source. Where two headings read alike, the source gives them in different places.

What was measured:
[1] = Body weight loss before NSF in SD experiments; format: in vivo; settings: SD mice; ketamine after SD; vs saline
Description: Testing was performed as previously described (A13). Briefly, the testing apparatus consisted of a plastic box (50×50×20 cm). The floor was covered with approximately 2 cm of wooden bedding and the arena was brightly lit (1100-1200 lux). For 129S6/SvEv experiments, mice were food restricted for 12 h. For the C57BL/6N experiments, mice were food restricted for 24 h. All food was removed from the home cage. At the time of testing, a single pellet of food (regular chow) was placed on a white paper platform positioned in the center of the box. Each animal was placed in a corner of the box, and a stopwatch was immediately started. The latency of the mice to begin eating was recorded. Immediately after the latency was recorded, the food pellet was removed from the arena. The mice were then placed into a cage and the amount of food consumed in 5 min was measured (home cage consumption), followed by an assessment of post-restriction weight. We used the Kaplan-Meier survival analysis due to the lack of normal distribution of data. The Mantel-Cox log-rank test was used to evaluate differences between the experimental groups.

129S6/SvEvTac mice [2] = experiment: Learned helplessness (LH) shock escape; format: in vivo; settings: ketamine 30 mg kg^−1 1 week before LH training, vs saline
Description: Experiment 4 (Pre-ketamine in learned helplessness (LH)); At 8 weeks of age, a single injection of saline or ketamine (30 mg kg^−1) was administered. One week following this injection, LH training (inescapable shock) was administered. Two weeks later, mice were administered LH testing (shock escape).
The LH paradigm was used to induce depressive-like behavior (A4). In this paradigm, mice are exposed to unpredictable and uncontrollable stress (shocks) and then develop coping deficits to deal with the inescapable shocks. We modified a previously published paradigm (A5). Briefly, the procedure was conducted in a two-chamber shuttle box (model ENV 010MD; Med Associates, St. Albans, Vt.) located within a sound-attenuated cubicle. The grid floor was made of stainless steel and connected to a shock generator. The scrambled shock generator (model ENV 414S, Med Associates) created varying electrical potential differences between bars preventing an animal from avoiding shock.
Inescapable shock (training): At approximately 9 weeks of age, mice were trained in the LH paradigm. For each shuttle box, 2 animals were administered the protocol at the same time: the central door was closed, with one animal in the chamber on each side. After a 3 min habituation period, the shock deliveries began. […]

animals = settings: in vivo, ip; cited from earlier work
129S6/SvEvTac mice [3] = experiment: Elevated plus maze (EPM) in SD experiments; format: in vivo; settings: ketamine 30 mg kg^−1 before SD; Ctrl and SD groups
Description: Testing was performed as previously described (A14). Briefly, the maze is a plus-cross-shaped apparatus consisting of four arms, two open and two enclosed by walls, linked by a central platform at a height of 50 cm from the floor. Mice were individually placed in the center of the maze facing an open arm and were allowed to explore the maze for 5 min. The time spent in and the number of entries into the open arms was used as an anxiety index. For the 12956/SvEv experiments, videos were scored using behavioral tracking software (TopScan, CleverSys, Reston, Va.). For the C57BL/6Ntac experiments, all parameters were measured using a videotracker (EPM3C. Bioseb, Vitrolles, France).

C57BL/6J strain = settings: cited from earlier work
[4] = in rodents; cited from earlier work
military patients = settings: McGhee et al., cited from earlier work
C57BL/6NTac mice [5] = experiment: NSF in CORT model; format: in vivo; settings: ketamine 10 and 90 mg kg^−1 before CORT
Description: Experiment 5 (Pre-ketamine and pre-fluoxetine corticosterone (CORT)): C57BL16NTac mice were injected with ketamine (10, 30, 90 mg kg^−1, i.p.) 1 week before the start of CORT, or administered fluoxetine (18 mg kg^−1 per day) in the drinking water for 3 weeks before the start of CORT. Ketamine was purchased from Merial (100 mg/ml stock solution). Fluoxetine hydrochloride (160 μg/mL, equivalent to 18 mg kg^−1 per day in the drinking water) was purchased from Anawa Trading (Zurich, Switzerland) and dissolved in 0.45% hydroxypropyl-β-cyclodextrin (β-CD) (Sigma-Aldrich, Saint-Quentin Fallavier, France) solution. Following ketamine or fluoxetine treatment, CORT was administered for 3 weeks in the drinking water. CORT (4-pregnen-11b-DIOL-3 20-DIONE 21-hemisuccinate) (35 μg/ml) from. Sigma Aldrich (Saint-Quentin Fallavier, France) was dissolved in vehicle (0.45% β-CD). Control animals received vehicle (0.45% β-CD) throughout the duration of the experiment. […]
Testing was performed as previously described (A13). […] The latency of the mice to begin eating was recorded. Immediately after the latency was recorded, the food pellet was removed from the arena. The mice were then placed into a cage and the amount of food consumed in 5 min was measured (home cage consumption), followed by an assessment of post-restriction weight. […]

C57BL/6NTac mice [6] = experiment: FST in chronic corticosterone (CORT) model; format: in vivo
C57BL/6NTac mice [7] = experiment: EPM in CORT model; format: in vivo; settings: ketamine or fluoxetine before CORT
Description: Experiment 5 (Pre-ketamine and pre-fluoxetine corticosterone (CORT)): C57BL16NTac mice were injected with ketamine (10, 30, 90 mg kg^−1, i.p.) 1 week before the start of CORT, or administered fluoxetine (18 mg kg^−1 per day) in the drinking water for 3 weeks before the start of CORT. Ketamine was purchased from Merial (100 mg/ml stock solution). Fluoxetine hydrochloride (160 μg/mL, equivalent to 18 mg kg^−1 per day in the drinking water) was purchased from Anawa Trading (Zurich, Switzerland) and dissolved in 0.45% hydroxypropyl-β-cyclodextrin (β-CD) (Sigma-Aldrich, Saint-Quentin Fallavier, France) solution. Following ketamine or fluoxetine treatment, CORT was administered for 3 weeks in the drinking water. CORT (4-pregnen-11b-DIOL-3 20-DIONE 21-hemisuccinate) (35 μg/ml) from. Sigma Aldrich (Saint-Quentin Fallavier, France) was dissolved in vehicle (0.45% β-CD). Control animals received vehicle (0.45% β-CD) throughout the duration of the experiment.
Testing was performed as previously described (A14). […] For the 12956/SvEv experiments, videos were scored using behavioral tracking software (TopScan, CleverSys, Reston, Va.). For the C57BL/6Ntac experiments, all parameters were measured using a videotracker (EPM3C. Bioseb, Vitrolles, France).

[8] = 20 mg kg^−1 following the final SD session

## CNC1(c2ccccc2Cl)CCCCC1=O (racemic) [ketamine, (RS)-2-(2-chlorophenyl)-2-(methylamino)cyclohexanone]
[1]
  percentage of weight loss: lessened the percentage of weight loss; also recorded: attenuated this weight loss
129S6/SvEvTac mice [2]; testing 2 weeks later
  latency to escape the shock: decreased latency to escape the shock; also recorded: significantly less
129S6/SvEvTac mice [2]
  session length (all 30 trials): significantly shorter; also recorded: significantly less
animals
  reaction time to the hot plate test: increased reaction time to the hot plate test
129S6/SvEvTac mice [3]
  time in the closed arms of EPM: no significant effect of ketamine in either group
C57BL/6J strain; 20 mg kg^−1 administered before SD
  social avoidance: did not attenuate social avoidance
C57BL/6J strain; [8]
  anhedonia: not anhedonia
  social avoidance: attenuated social avoidance
[4]
  half-life: only a few hours
Military patients; ketamine during an operation for burns vs no ketamine, 2008
  prevalence of PTSD: decreased
Military patients; with and without intraoperative ketamine, 2014
  incidence rate of PTSD: comparable incidence rate of PTSD
C57BL/6NTac mice [5]
  latency to feed in NSF: prevented the chronic CORT-induced increase in latency to feed; also recorded: decreased the latency to feed
C57BL/6NTac mice [6]; C57BL/6NTac mice, doses tested 10, 30, 90 mg kg^−1
  most effective dose in protecting against depressive-like behavior following chronic CORT: 90 mg/kg
C57BL/6NTac mice [6]; CORT model
  persistence of ketamine-induced resilience post-injection: ≥ 4 weeks
C57BL/6NTac mice [6]; ketamine 90 mg kg^−1 or fluoxetine 18 mg kg^−1/day, before 3 weeks of CORT
  immobility time on day 2 in the FST: decreased immobility time; also recorded: significantly reduced immobility
C57BL/6NTac mice [7]
  time in the closed arms of EPM (anxiety-like phenotype): Neither ketamine nor fluoxetine robustly protected
